According to US6906061B2, “Pharmaceutical agent containing Rho kinase inhibitor” (Mitsubishi Pharma Corporation, priority 1996, dated 2005):

How the values were obtained:
[1] = molecular target: T1, Human Platelet Rho Kinase (p160ROCK) (Homo sapiens, UniProt Q13464); test: Rho kinase inhibitory action (inhibition of human platelet Rho kinase (p160ROCK)); format: biochemical; settings: histone substrate, 1 μM ATP
T1 construct: Human platelet p160ROCK was isolated by the method of Ishizaki et al; from tissue; host or cells: human platelets
T1 sequence (Q13464 whole entry): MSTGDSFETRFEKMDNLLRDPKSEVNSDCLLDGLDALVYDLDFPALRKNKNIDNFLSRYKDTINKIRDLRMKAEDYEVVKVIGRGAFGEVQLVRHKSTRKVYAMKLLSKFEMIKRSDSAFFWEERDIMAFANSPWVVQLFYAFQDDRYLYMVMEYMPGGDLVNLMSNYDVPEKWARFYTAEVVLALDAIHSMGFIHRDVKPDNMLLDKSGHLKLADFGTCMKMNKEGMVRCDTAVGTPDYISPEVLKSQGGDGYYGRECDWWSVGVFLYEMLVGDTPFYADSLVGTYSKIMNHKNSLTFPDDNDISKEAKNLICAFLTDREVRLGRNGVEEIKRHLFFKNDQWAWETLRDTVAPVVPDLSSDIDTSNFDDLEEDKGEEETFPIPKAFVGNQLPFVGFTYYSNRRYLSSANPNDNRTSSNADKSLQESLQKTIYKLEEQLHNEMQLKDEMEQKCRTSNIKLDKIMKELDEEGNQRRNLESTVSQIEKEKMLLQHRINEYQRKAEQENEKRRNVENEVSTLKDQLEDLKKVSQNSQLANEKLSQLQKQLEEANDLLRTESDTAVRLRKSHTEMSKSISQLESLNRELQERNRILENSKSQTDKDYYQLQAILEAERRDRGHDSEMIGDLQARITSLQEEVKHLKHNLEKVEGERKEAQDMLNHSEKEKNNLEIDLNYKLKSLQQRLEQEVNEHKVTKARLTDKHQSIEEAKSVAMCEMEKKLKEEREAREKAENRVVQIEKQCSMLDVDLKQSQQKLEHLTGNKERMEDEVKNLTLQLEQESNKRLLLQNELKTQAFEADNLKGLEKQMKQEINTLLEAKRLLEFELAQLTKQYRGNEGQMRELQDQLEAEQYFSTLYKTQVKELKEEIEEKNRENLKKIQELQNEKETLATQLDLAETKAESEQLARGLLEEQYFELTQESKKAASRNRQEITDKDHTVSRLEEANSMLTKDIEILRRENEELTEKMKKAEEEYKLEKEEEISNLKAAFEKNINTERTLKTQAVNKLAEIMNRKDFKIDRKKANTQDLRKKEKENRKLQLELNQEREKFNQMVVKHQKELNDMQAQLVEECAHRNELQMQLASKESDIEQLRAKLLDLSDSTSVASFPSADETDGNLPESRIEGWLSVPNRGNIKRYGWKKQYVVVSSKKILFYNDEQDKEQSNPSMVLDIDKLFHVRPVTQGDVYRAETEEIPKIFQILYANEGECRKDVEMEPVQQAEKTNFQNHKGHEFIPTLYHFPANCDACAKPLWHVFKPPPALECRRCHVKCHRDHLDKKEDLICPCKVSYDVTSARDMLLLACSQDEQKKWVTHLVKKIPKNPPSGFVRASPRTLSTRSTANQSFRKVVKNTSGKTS
Experimental: Rho Kinase Inhibitory Action (Inhibition of Human Platelet Rho Kinase (p160ROCK))
(§1) Kinase assay included the following steps. That is, a reaction mixture (total amount 30 μl) containing 50 mM Hepes-NaOH (pH=7.4), 10 mM MgCl2, 5 mM MnCl2, 2 mM dithiothreitol, 0.02% Brij35, 1 μM [γ-^32P]ATP, 330 μg/ml histone, p160ROCK (2 μl) isolated by the method of Ishizaki et al. and the test compound was incubated at 30° C. for 20 minutes. The solution was mixed with a 1/3 amount of 4× Laemmli sample buffer, boiled for 5 minutes and applied to SDS-PAGE. The gel was stained with Coomassie Brilliant Blue and dried. The band of histone was cut out and assayed for radioactivity.

[2] = tested on: BALB/c spleen cells stimulated with C57BL/6 spleen cells; test: Inhibition of mouse allogenic mixed lymphocyte reaction; format: cell-based; settings: Mus musculus, Lymphocyte, 96 h; 4 days culture, MTT; read-out: Mouse allogenic MLR inhibitory activity IC50
Experimental: Inhibition of Mouse Allogenic Mixed Lymphocyte Reaction
A mouse allogenic mixed lymphocyte reaction (hereinafter to be referred to as mouse allogenic MLR) was performed by mixed culture (equal ratio) of the spleen cell of BALB/c mice as the reaction cell and the spleen cell of C57BL/6 mice treated with mitomycin C as stimulated cell.
The reaction cells were prepared by the following method. Spleen was removed from 5-6 week old BALB/c mice and treated with RPMI1640 medium (containing kanamycin sulfate (60 μg/ml), penicillin G potassium (100 units/ml), N-2-hydroxyethylpiperazine-N′-2-ethanesulfonate (10 mM), 0.1% sodium hydrogencarbonate and L-glutamin (2 mM)) supplemented with 5% heat inactivated fetal bovine serum (FBS) to give a single cell suspension of the spleen cell. After hemolysis treatment, the suspension was adjusted to10^7 cells/ml with RPMI1640 medium containing 10^−4 M 2-mercaptoethanol and 10% FBS and used as a reaction cell suspension.
The reaction cell suspension (50 μl) prepared by the above method, stimulated cell suspension (50 μl) and the test compound (100 μl) prepared using RPMI1640 medium containing 10% FBS were added to a 96 well plate and incubated at 37° C. under 5% CO2 gas, 95% air for 4 days.
A pigment assay using 3-(4,5-dimethylthiazol-2-yl)-2,5-diphenyltetrazolium bromide (MTT) was applied for the determination of lymphocyte transformation reaction.
After the completion of culture, the supernatant (100 μl) in each well was removed, and 5 mg/ml MTT solution (20 μl) was added to each well, which was followed by incubation at 37° C. for 4 hours. Then, a 0.01 N hydrochloric acid solution (100 μl) containing 10% sodium dodecyl sulfate was added and the mixture was incubated at 37° C. overnight. The resulting purple crystals of formazan was dissolved and absorbance at 550 nm was measured using a microplate absorption meter, which was used as the index of lymphocyte transformation reaction of the mouse allogenic MLR. The inhibition of mouse allogenic MLR was evaluated by calculating the inhibition percentage by the following formula The results are shown in Table 7.

Human SK-Mel-28 melanoma = test: Inhibition of cell growth of SK-Mel-28 melanoma; format: cell-based; settings: 72 hours, MTT
Experimental: Inhibition of Cell Growth of SK-Mel-28 Melanoma
Human SK-Mel-28 melanoma (10^4 cells) and the test compound were suspended in RPMI1640 medium containing 100 μl of 10% FBS and incubated in a 96 well plate at 37° C. under 5% CO2 gas for 72 hours. After the incubation, 10 μl of MTT (5 mg/ml) was added to each well and the cells were incubated at 37° C. under 5% CO2 gas for 4 hours. Then, 10% sodium dodecyl sulfate and 0.01 N hydrochloric acid solution were each added by 10 μl to respective wells. After the plate was stood overnight, absorbance at 570 nm was measured using a microplate reader and the inhibition percentage (% cytotoxicity) was calculated by the following formula.
The cytotoxicity against human cultured tumor cells was confirmed by pigment method (Carmichael et al., Cancer Res., 47, 936-942, 1987: Mosman, J. Immunol. Methods, 65, 55-63, 1983) using 3-(4,5-dimethylthiazol-2-yl)-2,5-diphenyltetrazolium bromide (MTT).
The test compound was dissolved in dimethyl sulfoxide and diluted with RPMI 1640 medium before use. The final dimethyl sulfoxide concentration was adjusted to not more than 0.25%.

ROCKII = molecular target: T2, ROCKII (Mus musculus, UniProt P70336); test: Inhibition of ROCKII (myc-tagged, expressed in COS cells); format: biochemical; settings: enzyme expressed in COS cells; read-out: IC50 (μM) ROCK-II
T2 construct: made in house; host or cells: COS cells (transient transfection, immunoprecipitated with 9E10 anti-myc antibody on protein G-Sepharose)
T2 sequence (P70336 whole entry): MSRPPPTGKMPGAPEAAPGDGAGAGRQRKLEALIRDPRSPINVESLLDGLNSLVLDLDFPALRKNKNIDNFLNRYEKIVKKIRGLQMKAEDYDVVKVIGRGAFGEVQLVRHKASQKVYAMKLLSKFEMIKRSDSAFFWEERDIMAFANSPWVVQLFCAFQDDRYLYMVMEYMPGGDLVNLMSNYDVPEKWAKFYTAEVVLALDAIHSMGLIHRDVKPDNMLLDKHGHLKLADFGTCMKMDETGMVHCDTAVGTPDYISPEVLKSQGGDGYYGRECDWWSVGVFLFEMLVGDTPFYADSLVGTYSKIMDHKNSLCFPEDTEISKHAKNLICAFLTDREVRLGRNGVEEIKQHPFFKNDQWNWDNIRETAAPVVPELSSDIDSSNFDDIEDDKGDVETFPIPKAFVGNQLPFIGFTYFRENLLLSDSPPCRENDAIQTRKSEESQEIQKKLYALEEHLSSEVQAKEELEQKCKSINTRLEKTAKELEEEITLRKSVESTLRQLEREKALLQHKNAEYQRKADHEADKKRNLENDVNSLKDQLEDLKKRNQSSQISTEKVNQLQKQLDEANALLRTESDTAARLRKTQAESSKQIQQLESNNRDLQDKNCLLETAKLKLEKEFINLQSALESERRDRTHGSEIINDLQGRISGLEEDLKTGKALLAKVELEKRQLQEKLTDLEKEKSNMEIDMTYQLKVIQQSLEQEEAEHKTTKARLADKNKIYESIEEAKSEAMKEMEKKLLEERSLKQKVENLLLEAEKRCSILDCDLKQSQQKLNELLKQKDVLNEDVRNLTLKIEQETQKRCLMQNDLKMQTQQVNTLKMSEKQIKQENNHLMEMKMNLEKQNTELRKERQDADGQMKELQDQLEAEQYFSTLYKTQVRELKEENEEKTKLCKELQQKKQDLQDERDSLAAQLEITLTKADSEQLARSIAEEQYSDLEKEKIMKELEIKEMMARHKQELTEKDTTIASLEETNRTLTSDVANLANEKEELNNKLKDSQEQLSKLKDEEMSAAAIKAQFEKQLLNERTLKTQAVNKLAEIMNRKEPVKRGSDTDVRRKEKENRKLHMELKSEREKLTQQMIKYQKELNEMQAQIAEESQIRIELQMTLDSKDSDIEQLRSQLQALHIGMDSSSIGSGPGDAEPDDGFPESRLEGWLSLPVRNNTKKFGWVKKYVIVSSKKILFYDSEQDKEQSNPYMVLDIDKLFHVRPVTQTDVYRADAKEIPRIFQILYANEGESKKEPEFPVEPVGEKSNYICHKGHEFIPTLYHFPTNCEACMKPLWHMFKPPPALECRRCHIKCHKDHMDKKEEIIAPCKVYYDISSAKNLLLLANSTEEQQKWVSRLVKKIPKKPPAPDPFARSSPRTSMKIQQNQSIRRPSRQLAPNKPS
Experimental: as §1
(§2) Rho Kinase Inhibitory Action (Inhibition of p160ROCK and ROCKII)
(§3) COS cells were seeded in a 3.5 cm dish and incubated overnight. […] After incubation for 20 hours, the cells were washed once with ice-cooled PBS, and the cells were lysed on ice for 20 minutes using a lysis buffer (20 mM Tris-HCl (pH=7.5), 1 mM EDTA, 1 mM EGTA, 5 mM MgCl2, 25 mM NaF, 10 mM β glycerophosphate, 5 mM sodium pyrophorphate, 0.2 mM phenylmethylsulfonyl fluoride, 2 mM dithiothreitol, 0.2 mM sodium vanadate, 0.05% Triton X-100, 0.1 μM calyculin A). The lysate was centrifuged at 10,000×g for 10 minutes and the supernatant was recovered. […] Then, protein G-Sepharose was added and the mixture was shaken for 2 more hours. […]

[3] = tested on: trachea specimen contracted with acetylcholine; test: Effect on contraction by acetylcholine of trachea specimen removed from guinea pig; settings: Cavia porcellus, acetylcholine 10^−6 M contraction, 50% relaxation vs papaverine 10^−4 M maximum, read-out: Trachea relaxing action
Experimental: Male Hartley guinea pigs (body weight 260-390 g) were anesthetized by the peritoneal administration of pentobarbital sodium (100 mg/kg) and exsanguinated, whereafter trachea was removed. The anterior cartilage of the trachea was opened and the band was cut in a 3 mm width strip to give a specimen. The specimen was hung in a Magnus bath (40 ml) filled with Krebs-Henseleit solution (NaCl 117 mM; KCl 4.7 mM; CaCl2 2.5 mM; MgSO4 1.2 mM; NaHCO3 24.8 mM; KH2PO4 1.2 mM; glucose 11.0 mM) at a load of 1 g. The Magnus bath was constantly bubbled with a mixed gas (95% O2+5% CO2 gas). The tension of the strip was measured with an isomeric transducer (TB-611T, Nippon Koden) and depicted on a recorder (Ti-102, Tokai Irika).

p160ROCK = molecular target: T3, p160ROCK (Homo sapiens, UniProt Q13464); test: Inhibition of p160ROCK (myc-tagged, expressed in COS cells); format: biochemical; settings: enzyme expressed in COS cells
T3 construct: made in house; host or cells: COS cells (transient transfection, immunoprecipitated with 9E10 anti-myc antibody on protein G-Sepharose)
T3 sequence (Q13464 whole entry): as the sequence (Q13464 whole entry) above
Experimental: as §1, §2, §3

[4] = tested on: hind limb skin blood flow; test: Peripheral blood flow increasing action in STZ-induced diabetic rats; format: in vivo, rat; settings: intravenous, 1 μg
Outline: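 Male SD rats (200-300 g) made diabetic with STZ 65 mg/kg i.v.; one month later, under pentobarbital anesthesia, compound given i.v. via carotid catheter. Hind limb skin blood flow measured by laser flowmeter, expressed as percent increase over pre-dose flow.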

Row | SMILES | IC50 [1] [nM] | IC50 [2] [nM] | IC50 (Human SK-Mel-28 melanoma) [nM] | IC50 (ROCKII) [µM] | IC50 [3] [nM] | IC50 (p160ROCK) [µM] | Increase in skin blood flow ± standard error (%) [4] [%]
1 | CC(N)[C@H]1CC[C@H](C(=O)Nc2ccnc3[nH]ccc23)CC1 (single isomer, unassigned; (+)) [Compound 109.2HCl, (+)-trans-N-(1H-pyrrolo[2,3-b]pyridin-4-yl)-4-(1-aminoethyl)cyclohexanecarboxamide] | 110 | 1600 | 58000 | 0.048 | 43 | 0.095 | 
2 | CC(N)[C@H]1CC[C@H](C(=O)Nc2ccncc2)CC1 (single isomer, unassigned; (+)) [Compound 80.2HCl.H2O, (+)-trans-4-(1-aminoethyl)-1-(4-pyridylcarbamoyl)cyclohexane] |  | 9600 |  |  |  |  | 135.0 ± 13.4
